Four compounds from US20250326794A1, “ANTI-CANCER LEUCINE-RICH PEPTIDES AND USES THEREOF” (KING'S COLLEGE LONDON, priority 2019, published 2025) can be followed below.

Assay [1] in a line: Tryptophan fluorescent binding assay, 3POPC/1POPG vesicles. As to conditions: 50 μM peptide, PBS pH 7.4, lipid per peptide. In short, it runs like this:
(§1)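 Binding followed by tryptophan emission (300-450 nm, 280 nm excitation, 3 scans averaged) after 60 min incubation of 50 μM peptide with 0-5000 μM extruded 100 nm POPC or 3:1 POPC/POPG vesicles in PBS pH 7.4. Value: lipid-to-peptide ratio at half-maximal binding.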

Assay [2] deals with HMLER (human breast cancer bulk cell). Nature of the assay: cells. The settings on record: 72 h. An outline of the steps:
(§2)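 MTT viability after 72 h exposure to 0–100 μM compound (final DMSO 0.5% or 0%), 5×10^3 cells/well; HMLER lines and MCF-10A in MEGM, U2OS in DMEM with 10% FBS. A550 normalized to matching vehicle controls; IC50 interpolated from dose–response curves.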

Assay [3] relates to HMLER-shEcad (human breast cancer stem cell). Kind of assay: cells. The settings on record: 72 h. An outline of the steps: as §2
For assay [4], the system named is HEK293T (human embryonic kidney cell). Kind of assay: cells. As to conditions: 72 h.
Assay [5] relates to U2OS (human bone osteosarcoma). The settings on record: 72 h. An outline of the steps: as §2
Assay [6] in a line: ANTS/DPX liposome leakage assay, POPC vesicles. It counts as biochemical. The settings on record: 0.5 mM vesicles; for Peptide Concentration-induced 50% ANTS/DPX leakage at pH 4.8, POPC Vesicle: pH 4.8, lipid per peptide; for Peptide Concentration-induced 50% ANTS/DPX leakage at pH 7.4, POPC Vesicle: pH 7.4, lipid per peptide. An outline of the steps:
(§3)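 Peptide titrations (0–20 μM) were incubated 3 h with 0.5 mM ANTS/DPX-loaded 100 nm vesicles, either POPC alone or 3:1 POPC/POPG, at pH 7.4 or pH 4.8 in PBS. ANTS fluorescence (350/510 nm) normalized to Triton-lysed vesicles; 50%-leakage values given as lipid:peptide ratio.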

Assay [7] can be described thus: ANTS/DPX liposome leakage assay, 3POPC/1POPG vesicles. As to conditions: 0.5 mM vesicles; for Peptide Concentration-induced 50% ANTS/DPX leakage at pH 4.8, 3POPC/1POPG Vesicle: pH 4.8, lipid per peptide; for Peptide Concentration-induced 50% ANTS/DPX leakage at pH 7.4, 3POPC/1POPG Vesicle: pH 7.4, lipid per peptide. It counts as biochemical. In short, it runs like this: as §3

Assay [8] can be described thus: Tryptophan fluorescent binding assay, POPC vesicles. As to conditions: 50 μM peptide, PBS pH 7.4, lipid per peptide. An outline of the steps:
as §1

As a reminder, the IC50 is the concentration that inhibits the measured activity by half. Low readings indicate higher potency, high ones lower potency. In the case of `CC(C)C[C@H](NC(=O)CN)C(=O)N[C@@H](CC(C)C)C(=O)N[C@@H](Cc1c[nH]cn1)C(=O)N[C@@H](CC(C)C)C(=O)N[C@@H](CC(C)C)C(=O)N[C@@H](CCC(=O)O)C(=O)N[C@@H](CC(C)C)C(=O)N[C@@H](CC(C)C)C(=O)N[C@@H](CC(C)C)C(=O)N[C@@H](CCC(=O)O)C(=O)N[C@@H](C)C(=O)N[C@@H](C)C(=O)NCC(=O)N[C@@H](Cc1c[nH]c2ccccc12)C(N)=O` [HEE], the “Lipid Concentration-induced 50% Peptide Binding, 3POPC/1POPG Vesicle” value in assay [1] worked out at 0.50 L/P. The half-inhibitory concentration (IC50) in assay [2] was 6.5 ± 0.71 µM; in assay [3], 4.95 ± 0.49 µM; in assay [4], 10.2 ± 0.2 µM; in assay [5], 47.5 ± 11 µM. The “Peptide Concentration-induced 50% ANTS/DPX leakage at pH 4.8, POPC Vesicle” value in assay [6] is recorded as 100 L/P. Moreover, the “Peptide Concentration-induced 50% ANTS/DPX leakage at pH 7.4, POPC Vesicle” value in assay [6] amounted to 876 L/P. Moreover, the “Peptide Concentration-induced 50% ANTS/DPX leakage at pH 4.8, 3POPC/1POPG Vesicle” value in assay [7] is on record as 122 L/P. Besides, the “Peptide Concentration-induced 50% ANTS/DPX leakage at pH 7.4, 3POPC/1POPG Vesicle” value in assay [7] was determined as 792 L/P. Besides, the “Lipid Concentration-induced 50% Peptide Binding, POPC Vesicle” value in assay [8] stood at 0.58 L/P.

Regarding `CC(C)C[C@H](NC(=O)CN)C(=O)N[C@@H](CC(C)C)C(=O)N[C@@H](Cc1c[nH]cn1)C(=O)N[C@@H](CC(C)C)C(=O)N[C@@H](CC(C)C)C(=O)N[C@@H](CCC(=O)O)C(=O)N[C@@H](CC(C)C)C(=O)N[C@@H](CC(C)C)C(=O)N[C@@H](CC(C)C)C(=O)N[C@@H](Cc1c[nH]cn1)C(=O)N[C@@H](C)C(=O)N[C@@H](C)C(=O)NCC(=O)N[C@@H](Cc1c[nH]c2ccccc12)C(N)=O` [HEH], in assay [1], the “Lipid Concentration-induced 50% Peptide Binding, 3POPC/1POPG Vesicle” value is recorded as 3.50 L/P. Also, the IC50 in assay [2] amounted to 28.6 ± 10.8 µM; in assay [3], 11 ± 1.06 µM; in assay [4], 8.8 ± 1.7 µM; in assay [5], 106 ± 14 µM. In addition, in assay [6], the “Peptide Concentration-induced 50% ANTS/DPX leakage at pH 4.8, POPC Vesicle” value worked out at 173 L/P. Also, the “Peptide Concentration-induced 50% ANTS/DPX leakage at pH 7.4, POPC Vesicle” value in assay [6] came out at 995 L/P. Also, the “Peptide Concentration-induced 50% ANTS/DPX leakage at pH 4.8, 3POPC/1POPG Vesicle” value in assay [7] stood at 24 L/P. Further, the “Peptide Concentration-induced 50% ANTS/DPX leakage at pH 7.4, 3POPC/1POPG Vesicle” value in assay [7] amounted to 505 L/P. In addition, in assay [8], the “Lipid Concentration-induced 50% Peptide Binding, POPC Vesicle” value is on record as 0.88 L/P.

In the case of `CC(C)C[C@H](NC(=O)CN)C(=O)N[C@@H](CC(C)C)C(=O)N[C@@H](Cc1c[nH]cn1)C(=O)N[C@@H](CC(C)C)C(=O)N[C@@H](CC(C)C)C(=O)N[C@@H](Cc1c[nH]cn1)C(=O)N[C@@H](CC(C)C)C(=O)N[C@@H](CC(C)C)C(=O)N[C@@H](CC(C)C)C(=O)N[C@@H](CCC(=O)O)C(=O)N[C@@H](C)C(=O)N[C@@H](C)C(=O)NCC(=O)N[C@@H](Cc1c[nH]c2ccccc12)C(N)=O` [HHE], the “Lipid Concentration-induced 50% Peptide Binding, 3POPC/1POPG Vesicle” value in assay [1] is 0.75 L/P. Further, the IC50 came to 16.7 ± 2.26 µM in assay [2], 10.8 ± 0.78 µM in assay [3], 18.4 ± 3.75 µM in assay [4] and 53.2 ± 5.3 µM in assay [5]. The “Peptide Concentration-induced 50% ANTS/DPX leakage at pH 4.8, POPC Vesicle” value in assay [6] was 143 L/P. In assay [6], the “Peptide Concentration-induced 50% ANTS/DPX leakage at pH 7.4, POPC Vesicle” value was 842 L/P. Moreover, the “Peptide Concentration-induced 50% ANTS/DPX leakage at pH 4.8, 3POPC/1POPG Vesicle” value in assay [7] is given as 113 L/P. Moreover, the “Peptide Concentration-induced 50% ANTS/DPX leakage at pH 7.4, 3POPC/1POPG Vesicle” value in assay [7] amounted to 411 L/P. Besides, the “Lipid Concentration-induced 50% Peptide Binding, POPC Vesicle” value in assay [8] amounted to 1.00 L/P.

`CC(C)C[C@H](NC(=O)CN)C(=O)N[C@@H](CC(C)C)C(=O)N[C@@H](Cc1c[nH]cn1)C(=O)N[C@@H](CC(C)C)C(=O)N[C@@H](CC(C)C)C(=O)N[C@@H](Cc1c[nH]cn1)C(=O)N[C@@H](CC(C)C)C(=O)N[C@@H](CC(C)C)C(=O)N[C@@H](CC(C)C)C(=O)N[C@@H](Cc1c[nH]cn1)C(=O)N[C@@H](C)C(=O)N[C@@H](C)C(=O)NCC(=O)N[C@@H](Cc1c[nH]c2ccccc12)C(N)=O` [HHH]: the “Lipid Concentration-induced 50% Peptide Binding, 3POPC/1POPG Vesicle” value in assay [1] is recorded as 0.82 L/P. For the same compound, the IC50 in assay [2] came out at 21.1 ± 6.93 µM; in assay [3], 9.5 ± 0.99 µM; in assay [4], 30.6 ± 4.81 µM; in assay [5], 185 ± 7 µM. The “Peptide Concentration-induced 50% ANTS/DPX leakage at pH 4.8, POPC Vesicle” value in assay [6] came to 173 L/P. The “Peptide Concentration-induced 50% ANTS/DPX leakage at pH 7.4, POPC Vesicle” value in assay [6] is listed as 1133 L/P. The “Peptide Concentration-induced 50% ANTS/DPX leakage at pH 4.8, 3POPC/1POPG Vesicle” value in assay [7] is given as 50 L/P. Besides, the “Peptide Concentration-induced 50% ANTS/DPX leakage at pH 7.4, 3POPC/1POPG Vesicle” value in assay [7] is on record as 469 L/P. The “Lipid Concentration-induced 50% Peptide Binding, POPC Vesicle” value in assay [8] was 0.46 L/P.
